Counter-ions that a name gives are not always drawn.
Columns and labels:
[1] = cited from earlier work
[2] = Molindone hydrochloride solubility profile at ambient conditions; format: physicochemical; settings: acidic to slightly acidic media versus neutral to slightly alkaline pH; FIG. 1
Excerpt: As a weakly basic drug, molindone is typically included into formulations in the form of a salt, such as chloride, sulfate, phosphate, monohydrogenphosphate, dihydrogenphosphate, bromide, iodide, acetate, propionate, decanoate, caprylate, formate, oxalate, malonate, succinate, fumarate, maleate, citrate, lactate, tartrate, methanesulfonate, mandelate, and the like.

[3] = pH dependent solution state stability in phosphate buffer at 37° C.; format: physicochemical; settings: 24 hour exposure

solubility versus pH (in words) [2] | loss ([3]; pH 6.0 phosphate buffer) [%] | loss ([3]; pH 6.8 phosphate buffer) [%] | loss ([3]; pH 7.5 phosphate buffer) [%] | Structure (SMILES) | tmax ([1]; following oral administration) [h] | plasma elimination half-life ([1]; oral dose)
– | – | – | – | CCc1c(C)[nH]c2c1C(=O)C(CN1CCOCC1)CC2 (stereo not drawn) [Molindone hydrochloride] | 1 to 1.5 | about 2 hours
greater solubility | 3 | 6.4 | 7.5 | CCc1c(C)[nH]c2c1C(=O)C(CN1CCOCC1)CC2 (stereo not drawn) [Molindone, 3-Ethyl-6,7-dihydro-2-methyl-5-(morpholinomethyl)indol-4(5H)-one] | – | –
